# The supplement of paper PMC11061612
# How the values were obtained:
# [1] = system: CAL-148 (Breast Carcinoma); assay: Bliss excess, mean over the matrix (fraction); higher = more synergy
# Procedure, shortened: (§1)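 After 24 hours at 37°C and 5% CO2 in 1536-well plates, cells in DMEM/F12 or RPMI plus 10% FBS received two-drug dose matrices for 72 hours. Viability came from CellTiter-Glo 2.0 luminescence and was scaled as inhibition, anchored at 0 by vehicle wells and at 1 by blank wells. Combination Emax is taken as the second-highest inhibition in the matrix, and Bliss excess as the observed combination effect less EA + EB − EA·EB, with EA and EB the single-agent effects.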
# [2] = system: SK-ES-1 (Ewing's Sarcoma); assay: as above
# Procedure, shortened: as §1
# [3] = system: HO-1-N-1 (Oral Cavity Carcinoma); assay: as above
# Procedure, shortened: as §1
# [4] = system: KP-1N (Pancreatic Carcinoma); assay: as above
# Procedure, shortened: as §1
# AGS (Gastric Carcinoma) = assay: as above
# Procedure, shortened: as §1
# [5] = system: RO82-W-1 (Thyroid Gland Carcinoma); assay: as above
# Procedure, shortened: as §1
# [6] = system: NCI-H1869 (Non-Small Cell Lung Carcinoma); assay: as above
# Procedure, shortened: as §1
# [7] = system: TE-15 (Esophageal Squamous Cell Carcinoma); assay: as above
# Procedure, shortened: as §1
# NOS-1 (Osteosarcoma) = assay: as above
# Procedure, shortened: as §1
# [8] = system: NCI-H2085 (Non-Small Cell Lung Carcinoma); assay: as above
# Procedure, shortened: as §1
# [9] = system: LU-135 (Small Cell Lung Carcinoma); assay: as above
# Procedure, shortened: as §1
# [10] = system: LNCaP-Clone-FGC (Prostate Carcinoma); assay: as above
# Procedure, shortened: as §1
# [11] = system: TCCSUP (Bladder Carcinoma); assay: as above
# Procedure, shortened: as §1
# [12] = system: NCI-H1869 (Non-Small Cell Lung Carcinoma); assay: combination Emax (second highest fraction inhibited in the dose matrix, 72 h); higher = more inhibition; extreme values may be limits of the assay
# Procedure, shortened: as §1
# 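Wherever Bliss excess, mean over the matrix is given: after 72 h of two-drug dosing.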
structure (smiles),measurement,setting,value
"C=CCn1c(=O)c2cnc(Nc3ccc(N4CCN(C)CC4)cc3)nc2n1-c1cccc(C(C)(C)O)n1 [AZD1775] + C1CN(CCC1(C(=O)N[C@@H](CCO)C2=CC=C(C=C2)Cl)N)C3=NC=NC4=C3C=CN4 [Capivasertib] (first compound max 3 µM, partner max 3 µM)",Bliss excess,[1],-0.0405
same,Bliss excess,[2],0.0726
same,Bliss excess,[3],0.0595
same,Bliss excess,[4],-0.0101
same,Bliss excess,AGS (Gastric Carcinoma),0.0159
same,Bliss excess,[5],-0.0678
same,Bliss excess,[6],0.0342
same,Bliss excess,[7],0.0494
same,Bliss excess,NOS-1 (Osteosarcoma),0.0118
same,Bliss excess,[8],0.0047
same,Bliss excess,[9],0.0467
same,Bliss excess,[10],-0.0492
same,Bliss excess,[11],0.0046
same,combination Emax,[12],0.388
